# Assay results taken from ChEMBL document CHEMBL1201862, “PubChem BioAssay data set” (2004).
# Calls of active or inactive are those of the source.
# Assays:
# [1] = molecular target: Voltage-gated inwardly rectifying potassium channel KCNH2 (Homo sapiens, UniProt Q12809); settings: Potency;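 also: confirmatory quantitative high-throughput screen measuring inhibition of hERG channel activity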
# [2] = molecular target: T1, Short transient receptor potential channel 4 (Mus musculus, UniProt Q9QUQ5); experiment: calcium entry via TRPC4 opening agents – cell-based, HEK293 TRPC4/mu-opioid, Fluo-4 calcium, dose response (AID 434937); type: functional
# T1 sequence (Q9QUQ5 whole entry): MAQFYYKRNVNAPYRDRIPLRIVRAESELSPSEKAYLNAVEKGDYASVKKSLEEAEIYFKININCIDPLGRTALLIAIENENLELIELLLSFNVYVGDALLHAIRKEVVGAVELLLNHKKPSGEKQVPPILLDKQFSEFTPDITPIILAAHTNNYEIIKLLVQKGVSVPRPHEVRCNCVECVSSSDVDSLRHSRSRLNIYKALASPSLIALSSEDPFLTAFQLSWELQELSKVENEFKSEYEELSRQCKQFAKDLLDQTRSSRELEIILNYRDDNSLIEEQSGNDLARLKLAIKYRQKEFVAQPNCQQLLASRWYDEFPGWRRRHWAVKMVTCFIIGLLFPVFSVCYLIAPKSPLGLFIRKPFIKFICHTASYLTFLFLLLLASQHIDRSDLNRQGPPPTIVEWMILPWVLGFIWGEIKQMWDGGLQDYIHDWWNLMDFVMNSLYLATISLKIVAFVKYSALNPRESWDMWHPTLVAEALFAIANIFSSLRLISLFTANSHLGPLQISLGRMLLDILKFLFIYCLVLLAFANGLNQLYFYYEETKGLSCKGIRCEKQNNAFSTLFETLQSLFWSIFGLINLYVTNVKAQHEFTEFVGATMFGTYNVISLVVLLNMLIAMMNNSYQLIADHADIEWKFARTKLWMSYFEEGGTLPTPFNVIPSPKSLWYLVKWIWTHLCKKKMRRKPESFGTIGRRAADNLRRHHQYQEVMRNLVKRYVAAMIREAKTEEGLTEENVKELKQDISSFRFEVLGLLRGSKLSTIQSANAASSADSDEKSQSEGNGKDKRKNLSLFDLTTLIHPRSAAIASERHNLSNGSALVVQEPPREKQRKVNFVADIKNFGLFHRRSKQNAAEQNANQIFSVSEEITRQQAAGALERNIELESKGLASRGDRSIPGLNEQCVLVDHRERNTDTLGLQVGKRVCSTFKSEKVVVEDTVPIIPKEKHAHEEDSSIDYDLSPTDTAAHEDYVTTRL
# Vero [3] = experiment: cells; type: functional, cell-based; settings: Chlorocebus sabaeus
# Vero [4] = experiment: cells; type: functional; settings: Chlorocebus sabaeus
# [5] = fluconazole-exposed Candida albicans growth modulators – fluorescence, retest, confirmation (AID 2467); type: functional, cell-based
# [6] = NIH-3T3 fibroblast cytotoxicity, dose response, cytotoxicity control, cell-based, fluorescence, Alamar Blue, secondary assay (AID 2327); type: functional;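 also: NIH-3T3 mouse fibroblasts cultured with fluconazole at 8 µg/mL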
# [7] = MIN6 cell viability loss – mouse insulinoma, cytotoxicity control, dose response (AID 2122); type: functional;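 also: confirmatory high-throughput counterscreen run to flag cytotoxic compounds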
# [8] = decrease of insulin promoter-GFP reporter – imaging, high-content screening, mouse beta cells (AID 1628); type: functional; settings: MIN6
# Cytochrome P450 1A2 [9] = molecular target: T2, Cytochrome P450 1A2 (Homo sapiens, UniProt P05177);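 also: PubChem cytochrome P450 panel assay, CYP1A2 panel member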
# T2 sequence (P05177 whole entry): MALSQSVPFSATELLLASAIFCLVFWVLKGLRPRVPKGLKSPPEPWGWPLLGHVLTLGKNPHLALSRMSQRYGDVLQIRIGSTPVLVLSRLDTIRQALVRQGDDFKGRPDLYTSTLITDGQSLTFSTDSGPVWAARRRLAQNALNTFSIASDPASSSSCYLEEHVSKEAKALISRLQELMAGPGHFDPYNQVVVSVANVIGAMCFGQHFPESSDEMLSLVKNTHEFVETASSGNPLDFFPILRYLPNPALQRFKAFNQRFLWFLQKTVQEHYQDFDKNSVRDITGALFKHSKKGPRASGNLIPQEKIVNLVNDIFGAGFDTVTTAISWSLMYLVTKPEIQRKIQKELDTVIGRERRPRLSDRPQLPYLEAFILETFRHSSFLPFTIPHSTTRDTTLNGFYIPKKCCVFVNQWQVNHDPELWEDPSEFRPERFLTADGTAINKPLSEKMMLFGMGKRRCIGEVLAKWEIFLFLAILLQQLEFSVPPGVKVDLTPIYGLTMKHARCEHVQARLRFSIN
# Cytochrome P450 1A2 [10] = molecular target: T2, Cytochrome P450 1A2; remark: listed apart in the source
# Cytochrome P450 2C9 = Cytochrome P450 2C9 (Homo sapiens, UniProt P11712)
# Cytochrome P450 3A4 = Cytochrome P450 3A4 (Homo sapiens, UniProt P08684);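 also: CYP3A4 tested as one member of a cytochrome P450 panel screen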
# CAAX prenyl protease 2 [11] = molecular target: T3, CAAX prenyl protease 2 (Saccharomyces cerevisiae S288c, UniProt Q03530); type: biochemical
# T3 sequence (Q03530 whole entry): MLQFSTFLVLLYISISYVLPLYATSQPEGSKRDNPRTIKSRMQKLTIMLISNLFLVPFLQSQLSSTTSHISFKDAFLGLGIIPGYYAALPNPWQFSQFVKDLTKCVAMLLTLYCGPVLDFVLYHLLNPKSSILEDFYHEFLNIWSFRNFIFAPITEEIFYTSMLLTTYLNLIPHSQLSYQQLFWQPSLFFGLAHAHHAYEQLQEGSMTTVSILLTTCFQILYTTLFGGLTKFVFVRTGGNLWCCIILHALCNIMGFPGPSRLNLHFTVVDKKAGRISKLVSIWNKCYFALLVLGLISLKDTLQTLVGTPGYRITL
# [12] = Luminescence Cell-Based Dose Retest to Confirm Inhibitors of Cancer Stem Cells. [Related pubchem assays (depositor defined):AID2717, AID2721]; type: functional; settings: Homo sapiens
# [13] = toxicity toward cultured mammalian cells – cell-based, plate reader, cherry-pick samples, cytotoxicity control, dose response (AID 504397); type: functional
# [14] = viability loss of HMLE_sh_eGFP cells – cell-based, luminescence, counter-screen for HMLE_sh_ECad selective toxicity project, dose response (AID 463074); type: functional, Homo sapiens;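 also: HMLE human mammary epithelial cells expressing control shRNA against eGFP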
# CAAX prenyl protease 2 [15] = molecular target: CAAX prenyl protease 2 (Homo sapiens, UniProt Q9Y256); experiment: inhibition of Ras-converting CAAX protease Rce1 – biochemical, yeast membranes, quenched-peptide fluorescence, cherry-pick, dose response (AID 588849)
# [16] = molecular target: 5-hydroxytryptamine receptor 5A (Homo sapiens, UniProt P47898); experiment: Counterscreen for agonists of OPRM1-OPRD1 heterodimerization: luminescence-based cell-based high throughput dose response assay to identify agonists of 5-hydroxytryptamine (serotonin) 5A receptor (HTR5A). [Related pubchem assays (depositor defined):AID504326, AID504355, AID504692, AID504904, AID504905]; type: functional
# [17] = molecular target: Delta-type opioid receptor (Homo sapiens, UniProt P41143); experiment: Counterscreen for agonists of heterodimerization of the mu 1 (OPRM1) and delta 1 (OPRD1) opioid receptors: Luminescence-based cell-based high throughput dose response assay to identify agonists of OPRD1 homodimerization. [Related pubchem assays (depositor defined):AID504326, AID504355, AID504692, AID504904, AID504905]; type: functional
# Mu-type opioid receptor = Mu-type opioid receptor (Homo sapiens, UniProt P35372); experiment: Counterscreen for agonists of heterodimerization of the mu 1 (OPRM1) and delta 1 (OPRD1) opioid receptors: Luminescence-based cell-based high throughput dose response assay to identify agonists of OPRM1 homodimerization.; type: functional;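 also: U2OS cells expressing OPRM1 and beta-arrestin as split beta-galactosidase partners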
# [18] = NIH3T3 cell viability loss – ATP luminescence, mouse fibroblasts, counter-screen, dose response (AID 2010); type: functional, cell-based;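 also: cells exposed to compound for about 90 hours before reading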
# [19] = Trypanosoma cruzi growth suppression in host cells – NIH3T3 host cells, beta-gal luminescence, confirmation (AID 2044); type: functional, cell-based;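 also: intracellular parasites grown in NIH/3T3 mouse fibroblasts as host cells; luminescent beta-galactosidase reporter signal from transgenic T. cruzi replicating inside host cells; inhibitors lower the luminescence signal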
# [20] = HEK-293T viability loss, compound-treated – cell-based, uHTS hits, cytotoxicity control for B/T-cell NF-kB inhibitor project, dose response (AID 489019); type: functional;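 also: IC50 reflects cytotoxicity as loss of cell viability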
# INS1 = experiment: INS-1E survival protection against cytokine death – cell-based, luminescence, retest, dose response (AID 449756); type: functional; settings: Rattus norvegicus;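 also: cell death triggered by IL-1 beta plus TNF-alpha plus IFN-gamma mixture; protective hits raise ATP signal compared with cytokine alone wells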
# Jurkat = experiment: blockers of NF-kB activation in T cells – Jurkat, luciferase reporter, luminescence, B- and T-cell, dose response (AID 489004); type: functional, cell-based; settings: Homo sapiens;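 also: NF-kB luciferase reporter Jurkat cells stimulated with PMA plus ionomycin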
# [21] = molecular target: Voltage-dependent T-type calcium channel subunit alpha-1H (Homo sapiens, UniProt O95180); experiment: inhibition of CACNA1H calcium flux – cell-based, SynthLib3 library, HEK293 Cav3.2, fluorescence (AID 493041); type: functional
# [22] = T. cruzi infection blockers in NIH3T3 cells – beta-gal luminescence, NIH3T3 host cells, confirmation (AID 2630); type: functional, cell-based; settings: Mus musculus
# [23] = molecular target: T4, Microphthalmia-associated transcription factor (Homo sapiens, UniProt O75030); experiment: reducers of TRPM1 reporter luminescence, concentration series – cell-based, SK-MEL-5, cherry-picked, set 3, MITF inhibitor project, dose response (AID 493073); type: functional;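 also: SK-MEL-5 melanoma cells with luciferase driven by the MITF target TRPM1 promoter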
# T4 sequence (O75030 whole entry): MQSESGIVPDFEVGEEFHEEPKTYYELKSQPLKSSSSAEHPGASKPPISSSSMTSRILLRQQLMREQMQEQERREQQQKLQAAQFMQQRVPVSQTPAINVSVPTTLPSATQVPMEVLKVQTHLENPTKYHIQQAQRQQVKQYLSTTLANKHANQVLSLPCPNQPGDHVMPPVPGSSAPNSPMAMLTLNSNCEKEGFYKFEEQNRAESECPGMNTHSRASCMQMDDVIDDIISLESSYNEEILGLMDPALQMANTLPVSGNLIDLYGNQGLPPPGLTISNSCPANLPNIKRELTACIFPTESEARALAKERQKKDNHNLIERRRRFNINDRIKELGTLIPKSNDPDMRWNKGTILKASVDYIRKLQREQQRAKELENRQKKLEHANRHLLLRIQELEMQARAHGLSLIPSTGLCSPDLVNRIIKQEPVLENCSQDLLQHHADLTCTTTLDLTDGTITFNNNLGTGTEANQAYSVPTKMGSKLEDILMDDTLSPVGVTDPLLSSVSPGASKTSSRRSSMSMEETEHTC
# A-375 [24] = experiment: MITF: Counter assay: A375 proliferation Measured in Cell-Based System Using Plate Reader - 2084-03_Inhibitor_Dose_DryPowder_Activity. [Related pubchem assays (depositor defined):AID488944]; type: functional; settings: Homo sapiens
# A-375 [25] = experiment: proliferation inhibition in MITF-low A375 cells – cell-based, cherry-pick samples, set 2, counter-screen for MITF modulator project, dose response (AID 540335); type: functional; settings: Homo sapiens
# Voltage-dependent T-type calcium channel subunit alpha-1H, sequence (O95180 whole entry): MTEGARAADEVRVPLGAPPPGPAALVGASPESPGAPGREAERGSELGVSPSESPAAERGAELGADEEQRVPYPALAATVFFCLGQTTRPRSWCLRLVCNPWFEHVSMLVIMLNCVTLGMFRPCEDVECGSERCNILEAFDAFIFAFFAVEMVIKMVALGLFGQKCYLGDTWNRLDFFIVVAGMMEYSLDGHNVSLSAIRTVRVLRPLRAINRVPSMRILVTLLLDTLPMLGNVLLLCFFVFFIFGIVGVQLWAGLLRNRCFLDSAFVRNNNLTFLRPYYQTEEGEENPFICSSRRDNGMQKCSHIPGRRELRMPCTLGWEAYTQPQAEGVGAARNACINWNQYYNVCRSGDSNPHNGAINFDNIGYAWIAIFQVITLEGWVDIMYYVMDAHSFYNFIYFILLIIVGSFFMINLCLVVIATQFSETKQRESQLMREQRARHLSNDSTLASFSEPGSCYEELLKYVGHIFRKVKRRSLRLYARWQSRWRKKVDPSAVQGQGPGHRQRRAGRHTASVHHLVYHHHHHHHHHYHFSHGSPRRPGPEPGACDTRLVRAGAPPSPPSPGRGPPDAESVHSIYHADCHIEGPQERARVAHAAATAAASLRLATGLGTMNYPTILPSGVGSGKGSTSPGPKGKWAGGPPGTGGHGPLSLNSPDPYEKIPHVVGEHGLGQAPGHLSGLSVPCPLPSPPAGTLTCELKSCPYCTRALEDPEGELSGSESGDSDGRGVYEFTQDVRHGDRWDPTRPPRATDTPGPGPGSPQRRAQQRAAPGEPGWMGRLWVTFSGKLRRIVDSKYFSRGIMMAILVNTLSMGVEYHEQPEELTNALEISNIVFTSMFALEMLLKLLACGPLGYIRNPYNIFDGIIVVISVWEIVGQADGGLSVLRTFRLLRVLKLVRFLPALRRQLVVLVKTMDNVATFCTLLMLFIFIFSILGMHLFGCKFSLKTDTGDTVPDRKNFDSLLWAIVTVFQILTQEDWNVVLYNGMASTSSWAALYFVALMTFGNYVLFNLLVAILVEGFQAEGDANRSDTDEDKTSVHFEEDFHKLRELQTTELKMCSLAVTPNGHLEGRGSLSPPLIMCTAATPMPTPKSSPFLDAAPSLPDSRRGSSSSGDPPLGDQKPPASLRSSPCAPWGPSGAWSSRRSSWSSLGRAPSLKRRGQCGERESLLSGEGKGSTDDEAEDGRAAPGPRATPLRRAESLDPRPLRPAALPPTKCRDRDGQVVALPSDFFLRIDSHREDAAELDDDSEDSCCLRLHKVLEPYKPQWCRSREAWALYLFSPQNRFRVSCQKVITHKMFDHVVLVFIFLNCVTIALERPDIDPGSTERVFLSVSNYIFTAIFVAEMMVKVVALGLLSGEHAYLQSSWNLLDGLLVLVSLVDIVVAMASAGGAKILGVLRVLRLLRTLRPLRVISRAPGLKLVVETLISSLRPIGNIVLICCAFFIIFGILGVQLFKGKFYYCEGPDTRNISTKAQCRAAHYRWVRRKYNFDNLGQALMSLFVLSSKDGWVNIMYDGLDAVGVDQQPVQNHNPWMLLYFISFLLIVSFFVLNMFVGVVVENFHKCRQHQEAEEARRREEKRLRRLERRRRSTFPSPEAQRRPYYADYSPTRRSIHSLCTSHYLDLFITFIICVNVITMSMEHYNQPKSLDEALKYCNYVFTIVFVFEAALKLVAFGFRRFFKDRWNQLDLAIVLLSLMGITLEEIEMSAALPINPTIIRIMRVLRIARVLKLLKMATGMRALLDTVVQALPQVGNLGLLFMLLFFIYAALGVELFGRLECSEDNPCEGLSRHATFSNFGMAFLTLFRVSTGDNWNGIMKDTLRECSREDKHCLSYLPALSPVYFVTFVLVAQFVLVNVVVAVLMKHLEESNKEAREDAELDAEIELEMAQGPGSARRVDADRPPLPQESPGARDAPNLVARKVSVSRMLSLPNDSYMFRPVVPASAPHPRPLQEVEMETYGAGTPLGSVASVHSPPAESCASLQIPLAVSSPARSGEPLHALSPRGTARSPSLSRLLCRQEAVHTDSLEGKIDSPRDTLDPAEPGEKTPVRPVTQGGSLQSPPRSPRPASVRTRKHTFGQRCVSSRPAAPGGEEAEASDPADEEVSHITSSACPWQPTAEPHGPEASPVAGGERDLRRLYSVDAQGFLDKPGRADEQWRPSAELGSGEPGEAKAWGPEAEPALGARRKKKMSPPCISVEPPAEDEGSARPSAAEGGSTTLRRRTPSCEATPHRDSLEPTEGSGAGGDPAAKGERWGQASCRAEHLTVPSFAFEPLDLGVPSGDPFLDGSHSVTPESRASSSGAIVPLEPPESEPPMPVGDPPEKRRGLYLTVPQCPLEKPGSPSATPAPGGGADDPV
# Voltage-gated inwardly rectifying potassium channel KCNH2, sequence (Q12809 whole entry): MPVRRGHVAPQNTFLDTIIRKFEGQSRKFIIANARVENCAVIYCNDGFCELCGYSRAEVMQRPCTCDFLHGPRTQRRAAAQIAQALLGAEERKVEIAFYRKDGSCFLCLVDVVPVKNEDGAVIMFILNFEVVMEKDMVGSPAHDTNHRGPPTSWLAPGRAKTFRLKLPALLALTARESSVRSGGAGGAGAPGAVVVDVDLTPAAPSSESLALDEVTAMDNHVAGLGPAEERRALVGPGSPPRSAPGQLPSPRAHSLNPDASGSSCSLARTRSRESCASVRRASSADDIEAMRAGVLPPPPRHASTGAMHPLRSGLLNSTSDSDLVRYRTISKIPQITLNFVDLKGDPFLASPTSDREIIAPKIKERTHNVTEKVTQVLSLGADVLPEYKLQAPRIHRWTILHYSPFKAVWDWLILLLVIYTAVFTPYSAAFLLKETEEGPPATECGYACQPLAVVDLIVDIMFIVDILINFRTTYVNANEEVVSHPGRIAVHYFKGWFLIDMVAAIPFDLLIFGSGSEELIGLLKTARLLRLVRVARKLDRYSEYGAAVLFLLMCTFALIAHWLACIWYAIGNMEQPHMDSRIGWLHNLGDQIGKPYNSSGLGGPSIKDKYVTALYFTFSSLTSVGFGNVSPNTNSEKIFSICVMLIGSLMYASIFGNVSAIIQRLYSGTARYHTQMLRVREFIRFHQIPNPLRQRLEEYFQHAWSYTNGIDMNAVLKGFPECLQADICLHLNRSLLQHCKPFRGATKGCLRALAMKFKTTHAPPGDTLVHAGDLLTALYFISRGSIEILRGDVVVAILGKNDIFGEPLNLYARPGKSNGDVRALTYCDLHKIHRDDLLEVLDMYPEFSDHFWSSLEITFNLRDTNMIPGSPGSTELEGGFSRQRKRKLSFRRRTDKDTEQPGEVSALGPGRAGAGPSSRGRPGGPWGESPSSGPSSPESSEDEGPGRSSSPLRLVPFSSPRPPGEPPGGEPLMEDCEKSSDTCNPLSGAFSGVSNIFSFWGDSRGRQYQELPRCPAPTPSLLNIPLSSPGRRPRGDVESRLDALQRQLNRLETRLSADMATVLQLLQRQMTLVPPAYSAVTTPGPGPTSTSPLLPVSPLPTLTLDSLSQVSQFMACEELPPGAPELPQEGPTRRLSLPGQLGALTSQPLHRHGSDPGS
# Cytochrome P450 3A4, sequence (P08684 whole entry): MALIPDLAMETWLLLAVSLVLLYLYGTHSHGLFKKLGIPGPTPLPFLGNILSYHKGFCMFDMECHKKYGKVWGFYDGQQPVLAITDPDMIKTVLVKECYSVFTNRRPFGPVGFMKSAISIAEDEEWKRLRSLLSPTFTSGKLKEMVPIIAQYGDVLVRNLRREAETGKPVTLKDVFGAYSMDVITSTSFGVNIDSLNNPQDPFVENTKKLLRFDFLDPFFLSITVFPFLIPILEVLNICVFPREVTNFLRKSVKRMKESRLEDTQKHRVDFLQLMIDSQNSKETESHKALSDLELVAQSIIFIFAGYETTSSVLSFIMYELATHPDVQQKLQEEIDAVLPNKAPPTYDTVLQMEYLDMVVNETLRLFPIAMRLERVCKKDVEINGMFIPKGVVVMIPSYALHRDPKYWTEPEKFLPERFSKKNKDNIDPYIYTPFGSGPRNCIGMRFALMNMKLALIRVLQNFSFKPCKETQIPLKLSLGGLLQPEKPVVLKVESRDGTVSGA
# Mu-type opioid receptor, sequence (P35372 whole entry): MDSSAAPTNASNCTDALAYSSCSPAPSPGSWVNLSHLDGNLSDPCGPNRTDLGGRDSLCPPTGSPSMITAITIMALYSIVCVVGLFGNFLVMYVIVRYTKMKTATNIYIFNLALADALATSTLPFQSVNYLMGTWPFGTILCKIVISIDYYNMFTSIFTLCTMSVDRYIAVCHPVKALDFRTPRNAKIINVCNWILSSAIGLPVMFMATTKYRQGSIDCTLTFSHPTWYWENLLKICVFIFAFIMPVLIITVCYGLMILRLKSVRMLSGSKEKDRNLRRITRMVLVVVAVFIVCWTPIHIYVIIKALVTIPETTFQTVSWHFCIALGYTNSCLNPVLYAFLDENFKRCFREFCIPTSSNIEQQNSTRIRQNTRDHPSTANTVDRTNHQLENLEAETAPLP
# 5-hydroxytryptamine receptor 5A, sequence (P47898 whole entry): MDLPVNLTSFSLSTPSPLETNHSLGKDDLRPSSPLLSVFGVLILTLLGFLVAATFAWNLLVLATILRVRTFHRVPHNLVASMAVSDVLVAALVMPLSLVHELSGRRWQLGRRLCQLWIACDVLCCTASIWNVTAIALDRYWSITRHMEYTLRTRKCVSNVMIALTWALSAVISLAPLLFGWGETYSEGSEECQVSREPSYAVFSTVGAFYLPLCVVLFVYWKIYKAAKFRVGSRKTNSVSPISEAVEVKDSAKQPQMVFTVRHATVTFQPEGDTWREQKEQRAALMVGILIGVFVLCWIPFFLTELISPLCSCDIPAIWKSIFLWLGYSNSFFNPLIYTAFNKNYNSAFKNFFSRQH
# CAAX prenyl protease 2 (Homo sapiens, UniProt Q9Y256), sequence (Q9Y256 whole entry): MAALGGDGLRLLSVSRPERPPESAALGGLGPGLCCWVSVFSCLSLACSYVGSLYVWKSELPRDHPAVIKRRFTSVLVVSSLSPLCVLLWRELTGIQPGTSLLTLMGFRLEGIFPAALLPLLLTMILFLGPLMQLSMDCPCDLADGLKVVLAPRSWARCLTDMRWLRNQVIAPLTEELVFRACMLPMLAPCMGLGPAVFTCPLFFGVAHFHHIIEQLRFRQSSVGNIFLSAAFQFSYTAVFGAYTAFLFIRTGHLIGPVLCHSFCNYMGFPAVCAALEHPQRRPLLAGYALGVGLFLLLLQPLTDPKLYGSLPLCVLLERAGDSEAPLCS
structure (smiles),measurement,setting,value
N[C@@H](Cc1ccc(F)cc1)C(=O)O,AC50,[1],35.5 µM (inconclusive)
Cc1cccc(C(=O)NNC(=S)NC(=O)c2cccs2)c1,EC50,[2],5.96 µM (active)
same,IC50,Vero [3],23.5 µM (active)
same,CC50,Vero [4],> 25 µM (active)
same,EC50,[5],2.47 µM (active)
same,EC50,[6],> 160 µM (inactive)
COc1ccc2nc(Nc3nc(C)c(CCC(C)C)c(O)n3)nc(C)c2c1,IC50,[7],5.61 µM (active)
same,IC50,[8],1.95 µM (active)
COc1ccccc1OC[C@H](O)CN1CCN(CC(=O)Nc2c(C)cccc2C)CC1,AC50,Cytochrome P450 1A2 [9],inactive
CC(NC(=O)c1ccc(N2CCCC2=O)cc1)c1ccccc1 (stereo unspecified),AC50,Cytochrome P450 1A2 [10],39.8 µM (inconclusive)
same,AC50,Cytochrome P450 2C9,15.8 µM (inconclusive)
same,AC50,Cytochrome P450 3A4,inconclusive
Cc1ccc(OCCN2C(=O)C(=O)c3cc(C)ccc32)cc1,AC50,CAAX prenyl protease 2 [11],1.6 µM (active)
same,AC50,[12],24.2 µM (active)
same,AC50,[13],4.64 µM (active)
same,AC50,[14],145 µM (active)
same,AC50,CAAX prenyl protease 2 [15],12.8 µM (active)
CN1C(CC(=O)Nc2ccc(Br)cc2)c2ccccc2CC1(C)C (stereo unspecified),EC50,[2],2.11 µM (active)
same,EC50,[16],> 92.5 µM (inactive)
same,EC50,[17],86.4 µM (inactive)
same,EC50,Mu-type opioid receptor,> 92.5 µM (inactive)
N=c1c2c(n(Cc3ccc(Br)cc3)c3c1CCC3)CCCC2,EC50,[18],> 60 µM (inconclusive)
same,EC50,[19],0.26 µM (active)
same,IC50,[20],> 80 µM (inactive)
same,AC50,INS1,2.64 µM (active)
same,IC50,Jurkat,24.6 µM (inactive)
CC(C)CN1C[C@@H]2C(CNC(=O)c3cc(Cl)cc(Cl)c3)[C@@H]2C1 (stereo partly specified),EC50,[21],10 µM (active)
COc1ccc(C(=O)C2CCCN(CCc3ccccc3)C2)cc1OC (stereo unspecified),EC50,[22],0.0558 µM (active)
Cc1ccc([N+](=O)[O-])cc1N1C(=O)CS/C1=N\NC(=O)c1cccnc1,AC50,[23],48.7 µM (active)
same,AC50,A-375 [24],> 35 µM (active)
same,AC50,A-375 [25],> 35 µM (active)
